According to ChEMBL document CHEMBL1201862, “PubChem BioAssay data set” (2004):
Activity calls are given as the source filed them.

Assays:
[1] = molecular target: T1, Endoribonuclease toxin MazF (Escherichia coli K-12, UniProt P0AE70); test: MazEF toxin-antitoxin RNase activation – biochemical, fluorescence, single-stranded RNA substrate, SAR follow-up (AID 588603); type: functional
T1 sequence (P0AE70 whole entry): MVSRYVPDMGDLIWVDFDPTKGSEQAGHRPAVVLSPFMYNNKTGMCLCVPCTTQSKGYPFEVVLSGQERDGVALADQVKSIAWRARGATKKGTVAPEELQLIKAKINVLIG

[2] = molecular target: T1, Endoribonuclease toxin MazF; test: activation of MazEF endoribonuclease cleavage – biochemical, fluorescence, single-stranded RNA substrate, uHTS hits, dose response (AID 588481); type: functional
[3] = tested on: MEF; test: SAR analysis of small molecule cytotoxicity of MazEF TA System activators in embryonic fibroblast (MEF) cells. [Related pubchem assays (depositor defined):AID504720, AID504743]; type: functional; conditions: Mus musculus
[4] = molecular target: T1, Endoribonuclease toxin MazF; test: SAR analysis of small molecule activators of the MazEF TA System via a fluorescence-based single-stranded RNase assay counterscreen. [Related pubchem assays (depositor defined):AID504720, AID504743]; type: functional
[5] = molecular target: T1, Endoribonuclease toxin MazF; test: substrate-only fluorescence increase artefacts – biochemical, single-stranded RNase substrate, counter-screen for MazEF activator project, dose response (AID 588502); type: functional
[6] = molecular target: T2, Voltage-gated N-type calcium channel alpha-1B subunit/Amyloid beta A4 precursor protein-binding family A member 1 (Homo sapiens, UniProt Q00975+Q02410); type: protein assay
T2 sequence (Q00975 whole entry): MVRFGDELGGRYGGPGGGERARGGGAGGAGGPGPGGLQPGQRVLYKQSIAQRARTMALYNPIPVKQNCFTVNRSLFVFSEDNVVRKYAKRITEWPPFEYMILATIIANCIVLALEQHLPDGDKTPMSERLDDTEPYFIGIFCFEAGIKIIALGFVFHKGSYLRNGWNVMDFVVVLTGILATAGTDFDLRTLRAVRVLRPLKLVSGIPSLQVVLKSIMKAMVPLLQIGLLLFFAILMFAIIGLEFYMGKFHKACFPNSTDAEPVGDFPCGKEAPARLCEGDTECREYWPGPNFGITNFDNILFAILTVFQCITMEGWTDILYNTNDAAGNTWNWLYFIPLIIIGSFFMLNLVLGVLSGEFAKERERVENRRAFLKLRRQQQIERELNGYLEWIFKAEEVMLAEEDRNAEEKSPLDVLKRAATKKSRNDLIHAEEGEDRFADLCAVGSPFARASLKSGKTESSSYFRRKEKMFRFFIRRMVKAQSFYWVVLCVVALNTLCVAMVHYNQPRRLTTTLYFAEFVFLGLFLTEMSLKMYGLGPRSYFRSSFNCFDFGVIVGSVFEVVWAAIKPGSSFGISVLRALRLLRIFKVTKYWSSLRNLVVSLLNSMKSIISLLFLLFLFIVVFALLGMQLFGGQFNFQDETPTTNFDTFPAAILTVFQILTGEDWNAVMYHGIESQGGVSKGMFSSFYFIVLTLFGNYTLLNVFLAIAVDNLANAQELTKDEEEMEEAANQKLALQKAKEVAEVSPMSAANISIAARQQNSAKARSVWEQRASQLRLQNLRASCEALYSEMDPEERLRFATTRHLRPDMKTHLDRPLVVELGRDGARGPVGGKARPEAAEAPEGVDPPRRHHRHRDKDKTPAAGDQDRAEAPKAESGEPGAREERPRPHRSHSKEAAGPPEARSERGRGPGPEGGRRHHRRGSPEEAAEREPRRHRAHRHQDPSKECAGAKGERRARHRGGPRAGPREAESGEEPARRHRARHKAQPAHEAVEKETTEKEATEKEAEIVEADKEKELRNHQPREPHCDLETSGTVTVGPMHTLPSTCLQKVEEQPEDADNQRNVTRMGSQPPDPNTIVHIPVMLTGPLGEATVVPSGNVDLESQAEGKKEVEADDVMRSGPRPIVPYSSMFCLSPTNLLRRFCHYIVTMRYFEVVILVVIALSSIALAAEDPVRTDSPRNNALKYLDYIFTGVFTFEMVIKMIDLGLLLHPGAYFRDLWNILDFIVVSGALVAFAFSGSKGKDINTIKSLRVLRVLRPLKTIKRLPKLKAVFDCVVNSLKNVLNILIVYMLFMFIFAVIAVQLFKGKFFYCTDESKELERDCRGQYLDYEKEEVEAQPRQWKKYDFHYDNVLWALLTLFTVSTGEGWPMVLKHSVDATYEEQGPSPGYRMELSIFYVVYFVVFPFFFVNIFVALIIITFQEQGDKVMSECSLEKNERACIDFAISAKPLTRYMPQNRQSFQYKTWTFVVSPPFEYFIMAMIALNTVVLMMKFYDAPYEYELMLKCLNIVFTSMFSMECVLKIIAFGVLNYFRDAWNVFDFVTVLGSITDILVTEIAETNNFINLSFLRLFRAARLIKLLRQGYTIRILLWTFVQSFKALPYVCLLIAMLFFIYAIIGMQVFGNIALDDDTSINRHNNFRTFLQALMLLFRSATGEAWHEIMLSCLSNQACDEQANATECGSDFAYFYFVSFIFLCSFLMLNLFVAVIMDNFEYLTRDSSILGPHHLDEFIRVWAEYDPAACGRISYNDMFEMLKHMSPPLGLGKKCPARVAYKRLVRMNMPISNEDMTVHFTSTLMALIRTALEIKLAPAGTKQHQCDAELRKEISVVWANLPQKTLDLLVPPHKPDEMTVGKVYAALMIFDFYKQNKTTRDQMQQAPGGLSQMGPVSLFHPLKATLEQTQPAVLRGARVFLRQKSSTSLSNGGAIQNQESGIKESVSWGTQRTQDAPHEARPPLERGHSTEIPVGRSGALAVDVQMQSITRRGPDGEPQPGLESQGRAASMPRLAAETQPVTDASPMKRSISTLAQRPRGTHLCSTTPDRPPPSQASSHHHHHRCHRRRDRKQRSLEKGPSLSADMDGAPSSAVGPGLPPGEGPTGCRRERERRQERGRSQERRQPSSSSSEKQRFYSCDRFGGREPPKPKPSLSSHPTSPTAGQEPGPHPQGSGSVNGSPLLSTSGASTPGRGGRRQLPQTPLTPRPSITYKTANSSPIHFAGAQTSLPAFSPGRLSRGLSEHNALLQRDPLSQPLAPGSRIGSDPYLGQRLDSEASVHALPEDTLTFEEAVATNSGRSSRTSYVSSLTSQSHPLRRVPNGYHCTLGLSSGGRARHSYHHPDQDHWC
T2 sequence (Q02410 whole entry): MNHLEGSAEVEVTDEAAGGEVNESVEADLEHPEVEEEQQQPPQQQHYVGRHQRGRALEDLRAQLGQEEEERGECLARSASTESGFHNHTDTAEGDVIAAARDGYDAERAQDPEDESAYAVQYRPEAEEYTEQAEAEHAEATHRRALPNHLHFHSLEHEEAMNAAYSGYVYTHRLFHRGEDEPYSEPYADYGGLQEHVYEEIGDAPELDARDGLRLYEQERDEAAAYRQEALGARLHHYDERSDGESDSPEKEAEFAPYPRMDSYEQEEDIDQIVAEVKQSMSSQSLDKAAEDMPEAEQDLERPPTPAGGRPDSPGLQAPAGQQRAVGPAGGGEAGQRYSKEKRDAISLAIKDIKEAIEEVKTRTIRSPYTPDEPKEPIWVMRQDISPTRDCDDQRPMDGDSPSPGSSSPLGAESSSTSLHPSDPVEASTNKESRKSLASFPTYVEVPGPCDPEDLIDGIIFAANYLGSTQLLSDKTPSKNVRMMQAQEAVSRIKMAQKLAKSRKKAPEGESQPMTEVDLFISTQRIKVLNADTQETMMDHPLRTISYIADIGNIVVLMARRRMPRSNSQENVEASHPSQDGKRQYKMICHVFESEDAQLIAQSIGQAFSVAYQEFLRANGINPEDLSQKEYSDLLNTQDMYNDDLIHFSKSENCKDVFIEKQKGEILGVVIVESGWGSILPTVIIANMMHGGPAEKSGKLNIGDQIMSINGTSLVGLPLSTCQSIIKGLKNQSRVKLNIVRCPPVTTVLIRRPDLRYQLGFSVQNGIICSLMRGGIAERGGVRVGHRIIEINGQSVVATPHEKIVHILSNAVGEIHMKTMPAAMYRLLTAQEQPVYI

[7] = molecular target: T2, Voltage-gated N-type calcium channel alpha-1B subunit/Amyloid beta A4 precursor protein-binding family A member 1; type: protein assay; remark: listed apart in the source
[8] = molecular target: DNA dC->dU-editing enzyme APOBEC-3A (Homo sapiens, UniProt P31941); test: A3A deaminase inhibition for selectivity – biochemical, dose response (AID 504722); type: functional
[9] = molecular target: DNA dC->dU-editing enzyme APOBEC-3G (Homo sapiens, UniProt Q9HC16); test: Dose Response confirmation of small molecule APOBEC3G DNA Deaminase Inhibitors via a fluorescence-based single-stranded DNA deaminase assay. [Related pubchem assays (depositor defined):AID493012, AID493028]; type: functional
[10] = molecular target: Beta-adrenergic receptor kinase 1 (Homo sapiens, UniProt P25098); test: aptamer displacement from bead-bound GRK2 – biochemical, cherry pick 1, bead flow cytometry, dose response (AID 504500)
[11] = molecular target: T3, Apoptotic protease-activating factor 1 (Homo sapiens, UniProt O14727); test: activation of Apaf-1 mediated apoptosis – fluorescent, uHTS hits, dose response (AID 588554); type: functional
T3 sequence (O14727 whole entry): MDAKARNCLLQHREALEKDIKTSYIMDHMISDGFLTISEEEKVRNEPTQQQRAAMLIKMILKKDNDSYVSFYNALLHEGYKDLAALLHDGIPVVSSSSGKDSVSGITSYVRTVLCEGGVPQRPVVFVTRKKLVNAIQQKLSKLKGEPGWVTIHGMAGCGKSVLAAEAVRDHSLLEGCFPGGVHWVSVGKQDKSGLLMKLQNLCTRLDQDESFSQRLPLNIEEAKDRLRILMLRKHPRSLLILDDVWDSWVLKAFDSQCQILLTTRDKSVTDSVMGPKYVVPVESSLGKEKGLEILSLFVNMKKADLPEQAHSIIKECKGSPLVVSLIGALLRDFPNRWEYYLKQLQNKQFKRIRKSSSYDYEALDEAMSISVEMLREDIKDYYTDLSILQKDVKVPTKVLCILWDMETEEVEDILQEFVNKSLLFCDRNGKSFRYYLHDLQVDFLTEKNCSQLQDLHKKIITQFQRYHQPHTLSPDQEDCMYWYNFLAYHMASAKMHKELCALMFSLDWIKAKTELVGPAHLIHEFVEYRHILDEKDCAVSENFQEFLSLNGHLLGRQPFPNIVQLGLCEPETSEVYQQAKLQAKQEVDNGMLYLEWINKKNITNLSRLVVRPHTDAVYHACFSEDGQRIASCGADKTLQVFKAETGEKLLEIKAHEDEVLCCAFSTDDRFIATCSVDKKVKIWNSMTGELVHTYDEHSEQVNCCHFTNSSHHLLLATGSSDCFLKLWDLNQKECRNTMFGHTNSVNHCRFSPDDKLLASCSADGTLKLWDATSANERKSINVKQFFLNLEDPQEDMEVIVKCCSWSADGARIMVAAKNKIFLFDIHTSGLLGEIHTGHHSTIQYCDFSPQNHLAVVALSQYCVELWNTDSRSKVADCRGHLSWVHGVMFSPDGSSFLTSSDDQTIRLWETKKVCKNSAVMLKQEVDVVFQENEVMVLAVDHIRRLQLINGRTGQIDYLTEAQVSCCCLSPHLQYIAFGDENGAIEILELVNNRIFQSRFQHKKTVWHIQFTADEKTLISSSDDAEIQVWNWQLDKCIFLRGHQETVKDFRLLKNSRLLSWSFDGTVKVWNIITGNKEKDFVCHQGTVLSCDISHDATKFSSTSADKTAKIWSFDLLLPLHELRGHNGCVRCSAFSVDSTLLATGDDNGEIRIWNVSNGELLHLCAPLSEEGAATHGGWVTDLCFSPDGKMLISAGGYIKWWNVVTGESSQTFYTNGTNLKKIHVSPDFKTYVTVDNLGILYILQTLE

[12] = molecular target: T4, Carboxy-terminal domain RNA polymerase II polypeptide A small phosphatase 1 (Homo sapiens, UniProt Q9GZU7); test: CTDSP1 inhibitors, concentration-response, biochemical, absorbance readout, ultra-high-throughput screen actives (AID 540297); type: functional
T4 sequence (Q9GZU7 whole entry): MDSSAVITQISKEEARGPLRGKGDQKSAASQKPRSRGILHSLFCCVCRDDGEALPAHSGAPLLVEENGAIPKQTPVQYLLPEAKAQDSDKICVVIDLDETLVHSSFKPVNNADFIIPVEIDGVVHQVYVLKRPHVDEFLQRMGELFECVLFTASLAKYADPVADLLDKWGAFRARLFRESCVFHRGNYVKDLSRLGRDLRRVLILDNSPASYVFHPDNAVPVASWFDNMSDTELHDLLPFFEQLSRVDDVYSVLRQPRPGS

[13] = molecular target: Glucose-6-phosphate 1-dehydrogenase (Homo sapiens, UniProt P11413); test: inhibition of Homo sapiens G6PD, dose series – biochemical, fluorescence, selectivity assay for P. falciparum G6PD inhibitor project, dose response (AID 504792); type: functional
[14] = tested on: Vero; test: viability of Vero cells under compound – cytotoxicity control for flavivirus capping enzyme inhibitors (AID 588742); type: functional; conditions: Chlorocebus sabaeus
[15] = molecular target: Genome polyprotein (dengue virus type 2, UniProt P29990); test: flavivirus cap methylation enzyme inhibition – biochemical, confirmation dose response, primary screen (AID 588689); type: functional
Genome polyprotein, sequence (P29990 2492-3391 limits assumed): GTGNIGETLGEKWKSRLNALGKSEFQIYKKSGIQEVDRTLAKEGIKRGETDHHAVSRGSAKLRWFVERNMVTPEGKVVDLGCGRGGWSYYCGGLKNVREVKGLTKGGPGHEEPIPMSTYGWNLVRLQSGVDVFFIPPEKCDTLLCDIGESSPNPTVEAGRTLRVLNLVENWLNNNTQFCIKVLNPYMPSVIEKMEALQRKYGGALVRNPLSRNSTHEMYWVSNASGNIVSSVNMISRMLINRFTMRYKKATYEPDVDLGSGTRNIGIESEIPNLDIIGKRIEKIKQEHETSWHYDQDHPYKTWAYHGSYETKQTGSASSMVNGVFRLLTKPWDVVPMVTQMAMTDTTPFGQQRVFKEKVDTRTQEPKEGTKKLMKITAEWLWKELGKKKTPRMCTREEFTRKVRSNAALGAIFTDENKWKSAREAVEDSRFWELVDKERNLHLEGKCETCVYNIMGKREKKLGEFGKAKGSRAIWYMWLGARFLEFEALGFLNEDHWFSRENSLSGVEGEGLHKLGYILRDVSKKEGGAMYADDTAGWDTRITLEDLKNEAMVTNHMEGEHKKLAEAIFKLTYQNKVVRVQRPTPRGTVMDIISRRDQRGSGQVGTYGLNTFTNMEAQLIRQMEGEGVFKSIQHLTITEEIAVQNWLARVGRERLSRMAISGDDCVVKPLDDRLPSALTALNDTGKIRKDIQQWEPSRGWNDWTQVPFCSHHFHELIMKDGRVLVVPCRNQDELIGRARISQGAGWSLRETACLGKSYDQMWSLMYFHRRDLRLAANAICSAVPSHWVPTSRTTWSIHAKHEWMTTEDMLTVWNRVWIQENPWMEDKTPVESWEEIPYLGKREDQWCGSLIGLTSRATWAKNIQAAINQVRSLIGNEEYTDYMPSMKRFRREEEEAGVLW

[16] = molecular target: Albumin (Bos taurus, UniProt P02769); test: Counterscreen for inhibitors of T-cell receptor (TCR)-CD3 interaction: Fluorescence-based biochemical high throughput dose response assay to identify inhibitors of T-cell receptor (TCR)-CD3 interaction using a TAMRA-labeled BSA probe.; type: functional
[17] = molecular target: T5, Tyrosyl-DNA phosphodiesterase 2 (Homo sapiens, UniProt O95551); test: potency against TDP2 phosphodiesterase activity – biochemical, epi absorbance, IC50, dose response (AID 743297)
T5 sequence (O95551 whole entry): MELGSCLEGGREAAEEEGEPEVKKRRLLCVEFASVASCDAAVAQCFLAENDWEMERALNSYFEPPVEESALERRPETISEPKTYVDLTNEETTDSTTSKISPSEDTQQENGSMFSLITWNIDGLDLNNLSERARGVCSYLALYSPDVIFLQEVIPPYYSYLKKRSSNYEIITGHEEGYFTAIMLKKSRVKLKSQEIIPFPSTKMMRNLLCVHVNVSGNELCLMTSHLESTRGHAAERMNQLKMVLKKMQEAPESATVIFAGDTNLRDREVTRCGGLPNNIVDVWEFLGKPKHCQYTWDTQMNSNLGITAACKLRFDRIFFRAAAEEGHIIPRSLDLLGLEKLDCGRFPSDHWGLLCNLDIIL

[18] = rescue of ΔF508 CFTR function, airway epithelium – human bronchial epithelial cells, plate reader, cherry-pick, two tests, dose response (AID 743267); type: functional, cell-based
[19] = tested on: Candida albicans; test: fluconazole-resistant Candida strain growth inhibitors – CaCi-8 strain, dry powder, set 4, dose response (AID 488950); type: functional, organism-based
[20] = tested on: Candida albicans; test: resistant Candida growth with fluconazole co-treatment – CaCi-8 strain, Alamar Blue, dry powder, set 2, dose response (AID 488909); type: functional, organism-based
[21] = tested on: Jurkat; test: SAR Analysis of small molecule inhibitors of […] specific antigen receptor-induced NF-kB activation in a Jurkat cell line using a luminescence assay - Set 3. [Related pubchem assays (depositor defined):AID435022, AID435025, AID465]; type: functional, cell-based; conditions: Homo sapiens
[22] = tested on: HEK293; test: SAR Analysis of small molecule inhibitors of B-cell specific antigen receptor-induced NF-kB activation in a HEK-293T cell line using a luminescence assay - Set 2. [Related pubchem assays (depositor defined):AID435022, AID435025, AID489021]; type: functional, cell-based; conditions: Homo sapiens
[23] = tested on: HEK293; test: HEK293T cell viability loss, resazurin readout – resazurin fluorescence, cytotoxicity control for NF-kB activator project, SAR follow-up (AID 493251); type: functional, cell-based; conditions: Homo sapiens
[24] = molecular target: T6, Phospholipase D1 (Homo sapiens, UniProt Q13393); test: cellular phospholipase D1 inhibition IC50 – cell-based, dose response (AID 602151); type: functional;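 further: cellular PLD1 assay in Calu-1 cells stimulated with PMA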
T6 sequence (Q13393 whole entry): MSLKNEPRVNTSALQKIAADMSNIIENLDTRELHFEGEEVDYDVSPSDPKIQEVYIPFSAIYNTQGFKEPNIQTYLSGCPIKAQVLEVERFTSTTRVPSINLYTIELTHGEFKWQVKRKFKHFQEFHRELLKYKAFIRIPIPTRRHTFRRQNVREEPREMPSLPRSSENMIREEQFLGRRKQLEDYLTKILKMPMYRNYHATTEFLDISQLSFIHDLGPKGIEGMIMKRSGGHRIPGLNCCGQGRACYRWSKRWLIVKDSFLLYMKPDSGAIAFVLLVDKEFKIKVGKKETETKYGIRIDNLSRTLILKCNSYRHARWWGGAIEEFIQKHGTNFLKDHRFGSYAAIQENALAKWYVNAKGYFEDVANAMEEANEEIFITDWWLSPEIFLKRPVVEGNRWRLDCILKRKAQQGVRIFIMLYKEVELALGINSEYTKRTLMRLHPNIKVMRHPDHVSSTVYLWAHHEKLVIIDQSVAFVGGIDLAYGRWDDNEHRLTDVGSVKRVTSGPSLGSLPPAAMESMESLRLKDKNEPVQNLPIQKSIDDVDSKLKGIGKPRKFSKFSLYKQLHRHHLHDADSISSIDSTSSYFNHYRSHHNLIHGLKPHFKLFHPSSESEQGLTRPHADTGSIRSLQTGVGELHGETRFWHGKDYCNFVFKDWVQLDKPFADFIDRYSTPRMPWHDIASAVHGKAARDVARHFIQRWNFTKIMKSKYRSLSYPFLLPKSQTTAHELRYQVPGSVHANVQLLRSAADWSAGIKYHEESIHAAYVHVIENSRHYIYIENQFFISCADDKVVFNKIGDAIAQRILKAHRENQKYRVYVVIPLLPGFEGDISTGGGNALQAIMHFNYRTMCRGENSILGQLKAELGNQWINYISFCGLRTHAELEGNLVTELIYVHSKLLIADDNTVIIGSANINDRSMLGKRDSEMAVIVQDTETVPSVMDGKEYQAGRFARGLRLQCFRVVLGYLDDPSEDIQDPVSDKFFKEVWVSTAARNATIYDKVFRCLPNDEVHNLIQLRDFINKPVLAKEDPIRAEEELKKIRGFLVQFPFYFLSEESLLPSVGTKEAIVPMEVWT

[25] = molecular target: T7, Phospholipase D2 (Homo sapiens, UniProt O14939); test: cellular phospholipase D2 inhibition IC50 – cell-based, dose response (AID 602147); type: functional;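 further: cellular assay in HEK293 cells overexpressing GFP-tagged PLD2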
[26] = molecular target: T6, Phospholipase D1; test: PLD1 purified enzyme concentration response. [Related pubchem assays (depositor defined):AID588854]; type: functional
[27] = molecular target: T7, Phospholipase D2; test: PLD2 purified enzyme concentration response. [Related pubchem assays (depositor defined):AID588854]; type: functional
[28] = tested on: H4; test: Inhibitors of Prion Protein 5' UTR mRNA Measured in Cell-Based System Using Plate Reader - 2078-01_Inhibitor_Dose_DryPowder_Activity. [Related pubchem assays (depositor defined):AID488894]; type: functional; conditions: Homo sapiens

Cc1ccc2nc(NCCc3ccc(Cl)cc3)c3nncn3c2c1
EC50 [1]: 17.7 µM (active)
EC50 [2]: 33.1 µM (inactive)
CC50 [3]: > 99 µM (inactive)
EC50 [4]: > 99 µM (inactive)
EC50 [5]: > 99 µM (inactive)

C=C(C)C(=O)Nc1cccc(C2=NOC3(C2)C[C@@H](C(N)=O)N(C(=O)CCCCC)C3)c1 (stereo partly drawn)
IC50 [6]: 10.2 µM (active)
IC50 [7]: > 50 µM (inactive)
IC50 [8]: > 100 µM (inactive)
IC50 [9]: 2.82 µM (active)
EC50 [10]: 0.11 µM (active)
EC50 [11]: 2.96 µM (active)
IC50 [12]: 0.9 µM (active)

O=C1C(=NCCc2cc(Br)c(O)c(Br)c2)C=C(O)c2cccnc21
IC50 [13]: 25.2 µM (inactive)
CC50 [14]: 2.03 µM (active)
IC50 [15]: 12.2 µM (active)
IC50 [16]: > 94.2 µM (inactive)
IC50 [17]: 5.04 µM (active)
AC50 [18]: 3.33 µM (active)

CCCC(=O)N1CCN(c2ccnc3cc(Cl)ccc23)CC1
AC50 [19]: 16.9 µM (active)
AC50 [20]: 5.59 µM (active)

CCOc1ccc(-c2nc(CSCC(=O)NC3CCCC3)c(C)o2)cc1
IC50 [21]: 37.6 µM (inactive)
IC50 [22]: 26.4 µM (inactive)
IC50 [23]: 64.2 µM (inactive)

C[C@@H](CN1CCC2(CC1)C(=O)NCN2c1ccc(F)c(F)c1)NC(=O)c1cc2cc(F)ccc2[nH]1
IC50 [24]: 0.005 µM (active)
IC50 [25]: 0.032 µM (active)

O=C(NCCN1CCC2(CC1)C(=O)NCN2c1ccc(Br)cc1)c1cc2cc(F)ccc2[nH]1
IC50 [26]: 5 µM (active)
IC50 [27]: 0.028 µM (active)

COc1ccc(NC=C2C(=O)c3ccccc3C2=O)c(OC)c1
AC50 [28]: 1.75 µM (active)
